Consider eight molecules from ChEMBL document CHEMBL3120136 (J Med Chem, 2014).

As a reminder, the EC50 is the concentration that produces a half-maximal response. Broadly, the IC50 is the midpoint of a concentration-inhibition curve. By AUC(0-t) is commonly meant exposure summed from dosing to a finite time, without extrapolation to infinity. The term efflux ratio denotes the permeability from basolateral to apical divided by that in the opposite direction, in the common usage. Usually solubility (thermodynamic) stands for solubility found after equilibrating the solid with the medium. As usually defined, the logD is the decadic logarithm of the distribution of all forms, ionised or not, between an organic phase and buffer at a given pH. A word on the Vdss: it is the apparent volume that relates the amount in the body to the concentration in plasma or blood.

The subject of one series is Hepatitis C virus. Briefly: Antiviral activity against Hepatitis C virus infected in human HuH7 cells assessed as inhibition of HCV subgenomic replicon replication after 72 hrs by ELISA. The series is classed as functional, organism-based, Hepacivirus hominis, Huh-7. Conditions: Hepatitis C virus, Huh-7, 72 h; read-out: EC50. (A replicon is a self-replicating genome or part of one, used to study replication in cells.)

Series [1] in a line: Inhibition of Hepatitis C virus full-length NS3/4A protease assessed as quenched-fluorogenic RET-S1 substrate cleavage incubated for 10 mins prior to substrate addition by FRET analysis. Set-up: species or system Hepacivirus hominis.
The nature of series [2]: (§1) Ratio of AUC (0 to 24 hrs) in liver to plasma in Sprague-Dawley rat at 30 mg/kg, po by HPLC-MS/MS analysis. Format: ADME, organism-based. Set-up: dose 30 mg/kg, route oral. The settings on record: Sprague-Dawley, liver and plasma, read-out: Ratio AUC.
Series [3] can be described thus: AUC (0 to 24 hrs) in Sprague-Dawley rat plasma at 30 mg/kg, po by HPLC-MS/MS analysis. The series is classed as ADME, organism-based. Further details: time < 24 hr, dose 30 mg/kg, route oral.
The nature of series [4]: AUC (0 to 24 hrs) in Sprague-Dawley rat liver at 30 mg/kg, po by HPLC-MS/MS analysis. Format: ADME, organism-based. Set-up: time < 24 hr, dose 30 mg/kg, route oral.
Series [5] can be described thus: Plasma clearance in rat assessed as extraction ratio. Format: ADME, organism-based. Conditions: read-out: ERH.
The nature of series [6]: Efflux ratio of permeability from basolateral to apical side over apical to basolateral side in human Caco2 cells. The settings on record: Caco-2. Format: ADME, cell-based.
Series [7] is described as follows: Permeability from apical to basolateral side of human Caco2 cells. The series is classed as ADME, cell-based. The settings on record: Caco-2, read-out: permeability. For orientation: Caco-2 monolayers are a common model of the intestinal barrier.
Series [8] can be described thus: Aqueous solubility of the compound at pH 6.5 by modified shake-flask method. The series is classed as physicochemical.
Series [9] in a line: Aqueous solubility of the compound at pH 7.4 by modified shake-flask method. The series is classed as physicochemical.
Series [10] in a line: Aqueous solubility of the compound at pH 1.2 by modified shake-flask method. Format: physicochemical.
Series [11] is described as follows: Metabolic stability in dog hepatocytes assessed as extraction ratio at 1 uM. The series is classed as ADME, cell-based, Canis lupus familiaris, Hepatocyte. The settings on record: read-out: ERH.
A short description of series [12]: Metabolic stability in cynomolgus monkey hepatocytes assessed as extraction ratio at 1 uM. The settings on record: read-out: ERH. Format: ADME, cell-based, Macaca fascicularis, Hepatocyte.
The nature of series [13]: Metabolic stability in human hepatocytes assessed as extraction ratio at 1 uM. Format: ADME, cell-based, Hepatocyte. Conditions: read-out: ERH.
Series [14] can be described thus: Metabolic stability in rat hepatocytes assessed as extraction ratio at 1 uM. Format: ADME, cell-based, Hepatocyte. Conditions: read-out: ERH.
Series [15] can be described thus: Lipophilicity, log D of the compound. Format: physicochemical. Conditions: octanol/water.
The next series concerns Rattus norvegicus. Briefly: Volume of distribution at steady state in Sprague-Dawley rat at 1 mg/kg, iv by HPLC-MS/MS analysis. The settings on record: in vivo.
For the next series, the system named is Liver. The description is as §1. The settings on record: other tissue. The series is classed as ADME, organism-based. Further details: dose 30 mg/kg, route oral.
Series [16] is described as follows: Ratio of drug level in liver to plasma in Sprague-Dawley rat at 30 mg/kg, po by HPLC-MS/MS analysis. The series is classed as ADME, organism-based. Further details: dose 30 mg/kg, route oral. The settings on record: liver and plasma.

Values after ≈ are worked out from the molar mass of the structure shown.

Regarding `CN(C)S(=O)(=O)NC(=O)[C@@]12C[C@H]1/C=C\CCCCC[C@H](NC(=O)OC(C)(C)C)C(=O)N1C[C@H](OC(=O)N3Cc4ccccc4C3)C[C@H]1C(=O)N2`, the EC50 in the series with Hepatitis C virus stood at 2.8 nM. For the same molecule, in [1], the IC50 was determined as 2.5 nM. In addition, the Kp in series [2] amounted to 132. The results for the area under the curve AUC(0-t) at 24 h in series [3] and in series [4] were 1030 ng·h/mL and 136000 ng·h/mL, respectively. Further, the hepatic extraction ratio in series [5] was more than 1. The efflux ratio in series [6] was more than 2. Besides, the Papp A→B in series [7] was less than 2 ×10⁻⁶ cm/s. In addition, the thermodynamic solubility is 165 µg/mL (≈ 230 µM) in series [8], more than 1000 µg/mL in series [9] and 0.5 µg/mL (≈ 0.697 µM) in [10]. The hepatic extraction ratio at 1 µM worked out at 0.16 in [11], 0.56 in [12], 0.56 in series [13] and 0.16 in series [14]. Further, in series [15], the log distribution coefficient (logD) was found to be 2.5. This molecule also yielded a Vdss with Rattus norvegicus of 2.583 L/kg.

On to `CC(C)(C)OC(=O)N[C@H]1CCCCC/C=C\[C@@H]2C[C@@]2(C(=O)NS(=O)(=O)C2CC2)NC(=O)[C@@H]2C[C@@H](OC(=O)N3CCc4ccccc4C3)CN2C1=O`, for which the EC50 in the series with Hepatitis C virus came out at 17.5 nM. The IC50 in [1] was 2.2 nM. In addition, the “Ratio AUC” value in the series with Liver stood at 4608. Besides, the results for the AUC(0-t) at 24 h in [3] and in [4] were 60 ng·h/mL and 276000 ng·h/mL, respectively. The hepatic extraction ratio in [5] was more than 1. In [6], the efflux ratio was more than 2. Moreover, the Papp A→B in series [7] is less than 2 ×10⁻⁶ cm/s. Also, the solubility (thermodynamic) in series [8] is 812 µg/mL (≈ 1120 µM); in series [9], more than 1000 µg/mL; in [10], 0.5 µg/mL (≈ 0.687 µM). Also, the hepatic extraction ratio at 1 µM amounted to 0.36 in [11], 0.53 in [12], 0.49 in [13] and 0.05 in [14]. In series [15], this molecule returned a logD of 2.2. Moreover, in [16], the Kp is more than 1000. For the same molecule, the Vdss in the series with Rattus norvegicus is 5.982 L/kg.

On to `CC(C)(C)OC(=O)N[C@H]1CCCCC/C=C\[C@@H]2C[C@@]2(C(=O)NS(=O)(=O)C2CC2)NC(=O)[C@@H]2C[C@@H](OC(=O)N3Cc4ccccc4C3)CN2C1=O`, for which the EC50 in the series on Hepatitis C virus was 2 nM. Further, in series [1], the IC50 stood at 1.2 nM. Further, the Kp in [2] turned out to be 1.2. The area under the curve AUC(0-t) at 24 h in [3] came to 32900 ng·h/mL; in series [4] it was 40300 ng·h/mL. Further, the hepatic extraction ratio in series [5] was 0.06. The efflux ratio in series [6] was more than 2. Also, the Papp A→B in [7] is less than 2 ×10⁻⁶ cm/s. In addition, the solubility (thermodynamic) in [8] was 702 µg/mL (≈ 983 µM); in series [9], more than 1000 µg/mL; in [10], 0.5 µg/mL (≈ 0.7 µM). Also, the hepatic extraction ratio at 1 µM in series [11] stood at 0.33; in [12], 0.28; in series [13], 0.65; in series [14] it was 0.01. Further, the logD in [15] is 2.4. In the series on Rattus norvegicus, the Vdss is 0.089 L/kg.

Turning to `CC(C)(C)OC(=O)N[C@H]1CCC(F)(F)CC/C=C\[C@@H]2C[C@@]2(C(=O)NS(=O)(=O)C2CC2)NC(=O)[C@@H]2C[C@@H](OC(=O)N3Cc4cccc(F)c4C3)CN2C1=O`, the half-maximal effective concentration (EC50) in the series with Hepatitis C virus was 7.2 nM. Also, in series [1], the IC50 was found to be 1.5 nM.

As for `CC(C)(C)OC(=O)N[C@H]1CCN(CC(F)(F)F)CC/C=C\[C@@H]2C[C@@]2(C(=O)NS(=O)(=O)C2CC2)NC(=O)[C@@H]2C[C@@H](OC(=O)N3Cc4cccc(F)c4C3)CN2C1=O`, the concentration for a half-maximal effect (EC50) with Hepatitis C virus was 24 nM. Also, the IC50 in [1] stood at 1.8 nM.

Turning to `CC(C)(C)OC(=O)N[C@H]1CCCCC/C=C\[C@@H]2C[C@@]2(C(=O)NS(=O)(=O)C2CC2)NC(=O)[C@@H]2C[C@@H](OC(=O)N3CCc4cc(F)ccc4C3)CN2C1=O`, the EC50 in the series on Hepatitis C virus was 11 nM. In series [1], the IC50 is 2 nM.

With `CC(C)(C)OC(=O)N[C@H]1CCCCC/C=C\[C@@H]2C[C@@]2(C(=O)NS(=O)(=O)C2CC2)NC(=O)[C@@H]2C[C@@H](OC(=O)N3Cc4cc(Cl)c(Cl)cc4C3)CN2C1=O`, the EC50 in the series with Hepatitis C virus was 24 nM. For the same molecule, the half-maximal inhibitory concentration (IC50) in series [1] was 1 nM.

Turning to `CC(C)(C)OC(=O)N[C@H]1CCCCC/C=C\[C@@H]2C[C@@]2(C(=O)NS(=O)(=O)C2CC2)NC(=O)[C@@H]2C[C@@H](OC(=O)N3Cc4ccc(Cl)cc4C3)CN2C1=O`, the half-maximal effective concentration (EC50) in the series with Hepatitis C virus was determined as 9.2 nM. Besides, the IC50 in series [1] was found to be 2 nM.
